# Measured values: patent publication US20110009343A1, “MODULATORS OF AMYLOID AGGREGATION” (Praecis Pharmaceuticals, Inc., priority 1995, published 2011)
# Numbered stars: 1 amine (or outer) side, 2 acyl side, 3 side chain; on linkers, the order of the positions; unused ones are H or OH. Square brackets hold non-standard residues; d marks the D form. Peptide text beside a SMILES is read from it. * marks the point of attachment. Cholyl = C[C@H](CCC(=O)*)[C@H]1CC[C@H]2[C@@H]3[C@H](O)C[C@@H]4C[C@H](O)CC[C@]4(C)[C@H]3C[C@H](O)[C@]12C; X2 = O=C(C1(O)C[C@H](O)[C@@H](N[*:1])[C@H]([C@H](O)[C@H](O)CO)O1)[*:2]; X3 = N=C1N[C@H]2[C@H](CS[C@H]2CCCCC(=O)*)N1
# Target: T1, Aβ1-40 (Homo sapiens, UniProt P05067)
# T1 construct: (β-AP1-40) was obtained commercially from Bachem (Torrance, Calif.); purchased Bachem (Torrance, Calif.)
# T1 sequence (P05067 672-711): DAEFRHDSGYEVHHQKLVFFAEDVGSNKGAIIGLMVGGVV
# Test: Nucleation assay (turbidity, A405 nm);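 note: synthetic Aβ monomer polymerization followed by turbidity in 96-well plates with continuous shaking, read every 15 minutes over 5 hours, compared against wells lacking test compound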
# Assay type: biochemical
# Conditions: not given
row,SMILES,inhibitory activity on Aβ aggregation
1,"C[C@H](CCC(=O)O)[C@H]1CC[C@H]2[C@@H]3[C@H](O)C[C@@H]4C[C@H](O)CC[C@]4(C)[C@H]3C[C@H](O)[C@]12C [PPI-293, Cholic acid, reference compound]",had no effect on Aβ aggregation

# Same assay, conditions: Table II; 100 mole % vs 50 μM Aβ1-40
row,SMILES,Fold Increase in Lag Time [fold]
1,CC(=O)N[C@H]1[C@H]([C@H](O)[C@H](O)CO)OC(O)(C(=O)N[C@@H](Cc2c[nH]cn2)C(=O)N[C@@H](CC(=O)O)C(=O)N[C@@H](CO)C(=O)NCC(=O)N[C@@H](Cc2ccc(O)cc2)C(=O)N[C@@H](CCC(=O)O)C(=O)N[C@H](C(=O)N[C@@H](Cc2c[nH]cn2)C(=O)N[C@@H](Cc2c[nH]cn2)C(=O)N[C@@H](CCC(N)=O)C(=O)N[C@@H](CCCCN)C(=O)N[C@@H](CC(C)C)C(=O)N[C@H](C(=O)N[C@@H](Cc2ccccc2)C(=O)N[C@@H](Cc2ccccc2)C(=O)O)C(C)C)C(C)C)C[C@@H]1O (some centres unmarked) [PPI-266] (Ac-[X2]HDSGYEVHHQKLVFF-OH),1.3
2,"CC(C)C[C@H](NC(=O)[C@H](CCCCN)NC(=O)[C@H](CCC(N)=O)NC(=O)[C@H](Cc1c[nH]cn1)NC(=O)[C@H](Cc1c[nH]cn1)NC(=O)[C@@H](NC(=O)[C@H](CCC(=O)O)NC(=O)[C@H](Cc1ccc(O)cc1)NC(=O)CNC(=O)[C@H](CO)NC(=O)[C@H](CC(=O)O)NC(=O)[C@H](Cc1c[nH]cn1)NC(=O)CCCC[C@@H]1SC[C@@H]2NC(=N)N[C@@H]21)C(C)C)C(=O)N[C@H](C(=O)N[C@@H](Cc1ccccc1)C(=O)N[C@@H](Cc1ccccc1)C(=O)O)C(C)C [PPI-267, iminobiotinyl-Aβ6-20] (X3-HDSGYEVHHQKLVFF-OH)",1.6
3,CC(C)C[C@H](NC(=O)[C@H](CCCCN)NC(=O)CC[C@@H](C)[C@H]1CC[C@H]2[C@@H]3[C@H](O)C[C@@H]4C[C@H](O)CC[C@]4(C)[C@H]3C[C@H](O)[C@]12C)C(=O)N[C@H](C(=O)N[C@@H](Cc1ccccc1)C(=O)N[C@@H](Cc1ccccc1)C(=O)N[C@@H](C)C(=O)N[C@@H](CCC(=O)O)C(=O)N[C@@H](CC(=O)O)C(=O)N[C@H](C(=O)NCC(=O)N[C@@H](CO)C(=O)N[C@@H](CC(N)=O)C(=O)N[C@@H](CCCCN)C(=O)NCC(=O)N[C@@H](C)C(=O)O)C(C)C)C(C)C [PPI-274] (Cholyl-KLVFFAEDVGSNKGA-OH),>4.5
4,CC(=O)N[C@H]1[C@H]([C@H](O)[C@H](O)CO)OC(O)(C(=O)N[C@@H](CCCCN)C(=O)N[C@@H](CC(C)C)C(=O)N[C@H](C(=O)N[C@@H](Cc2ccccc2)C(=O)N[C@@H](Cc2ccccc2)C(=O)N[C@@H](C)C(=O)N[C@@H](CCC(=O)O)C(=O)N[C@@H](CC(=O)O)C(=O)N[C@H](C(=O)NCC(=O)N[C@@H](CO)C(=O)N[C@@H](CC(N)=O)C(=O)N[C@@H](CCCCN)C(=O)NCC(=O)N[C@@H](C)C(=O)O)C(C)C)C(C)C)C[C@@H]1O (some centres unmarked) [PPI-276] (Ac-[X2]KLVFFAEDVGSNKGA-OH),~1
5,CC(C)C[C@H](NC(=O)[C@H](CCCCN)NC(=O)CCCC[C@@H]1SC[C@@H]2NC(=N)N[C@@H]21)C(=O)N[C@H](C(=O)N[C@@H](Cc1ccccc1)C(=O)N[C@@H](Cc1ccccc1)C(=O)N[C@@H](C)C(=O)N[C@@H](CCC(=O)O)C(=O)N[C@@H](CC(=O)O)C(=O)N[C@H](C(=O)NCC(=O)N[C@@H](CO)C(=O)N[C@@H](CC(N)=O)C(=O)N[C@@H](CCCCN)C(=O)NCC(=O)N[C@@H](C)C(=O)O)C(C)C)C(C)C [PPI-277] (X3-KLVFFAEDVGSNKGA-OH),1.2
6,CC[C@H](C)[C@H](NC(=O)[C@H](C)NC(=O)CNC(=O)[C@H](CCCCN)NC(=O)[C@H](CC(N)=O)NC(=O)[C@H](CO)NC(=O)CNC(=O)[C@@H](NC(=O)[C@H](CC(=O)O)NC(=O)[C@H](CCC(=O)O)NC(=O)[C@H](C)NC(=O)CC[C@@H](C)[C@H]1CC[C@H]2[C@@H]3[C@H](O)C[C@@H]4C[C@H](O)CC[C@]4(C)[C@H]3C[C@H](O)[C@]12C)C(C)C)C(=O)N[C@H](C(=O)NCC(=O)N[C@@H](CC(C)C)C(=O)N[C@@H](CCSC)C(=O)O)[C@@H](C)CC [PPI-279] (Cholyl-AEDVGSNKGAIIGLM-OH),1.6
7,CC[C@H](C)[C@H](NC(=O)[C@H](C)NC(=O)CNC(=O)[C@H](CCCCN)NC(=O)[C@H](CC(N)=O)NC(=O)[C@H](CO)NC(=O)CNC(=O)[C@@H](NC(=O)[C@H](CC(=O)O)NC(=O)[C@H](CCC(=O)O)NC(=O)[C@H](C)NC(=O)C1(O)C[C@H](O)[C@@H](NC(C)=O)[C@H]([C@H](O)[C@H](O)CO)O1)C(C)C)C(=O)N[C@H](C(=O)NCC(=O)N[C@@H](CC(C)C)C(=O)N[C@@H](CCSC)C(=O)O)[C@@H](C)CC (some centres unmarked) [PPI-281] (Ac-[X2]AEDVGSNKGAIIGLM-OH),~1
8,CC[C@H](C)[C@H](NC(=O)[C@H](C)NC(=O)CNC(=O)[C@H](CCCCN)NC(=O)[C@H](CC(N)=O)NC(=O)[C@H](CO)NC(=O)CNC(=O)[C@@H](NC(=O)[C@H](CC(=O)O)NC(=O)[C@H](CCC(=O)O)NC(=O)[C@H](C)NC(=O)CCCC[C@@H]1SC[C@@H]2NC(=N)N[C@@H]21)C(C)C)C(=O)N[C@H](C(=O)NCC(=O)N[C@@H](CC(C)C)C(=O)N[C@@H](CCSC)C(=O)O)[C@@H](C)CC [PPI-282] (X3-AEDVGSNKGAIIGLM-OH),~1
9,CC[C@H](C)[C@H](NC(=O)[C@H](C)NC(=O)CNC(=O)[C@H](CCCCN)NC(=O)[C@H](CC(N)=O)NC(=O)[C@H](CO)NC(=O)CC[C@@H](C)[C@H]1CC[C@H]2[C@@H]3[C@H](O)C[C@@H]4C[C@H](O)CC[C@]4(C)[C@H]3C[C@H](O)[C@]12C)C(=O)N[C@H](C(=O)NCC(=O)N[C@@H](CC(C)C)C(=O)N[C@@H](CCSC)C(=O)N[C@H](C(=O)NCC(=O)NCC(=O)N[C@H](C(=O)N[C@H](C(=O)O)C(C)C)C(C)C)C(C)C)[C@@H](C)CC [PPI-284] (Cholyl-SNKGAIIGLMVGGVV-OH),>4.5
10,CC[C@H](C)[C@H](NC(=O)[C@H](C)NC(=O)CNC(=O)[C@H](CCCCN)NC(=O)[C@H](CC(N)=O)NC(=O)[C@H](CO)NC(=O)C1(O)C[C@H](O)[C@@H](NC(C)=O)[C@H]([C@H](O)[C@H](O)CO)O1)C(=O)N[C@H](C(=O)NCC(=O)N[C@@H](CC(C)C)C(=O)N[C@@H](CCSC)C(=O)N[C@H](C(=O)NCC(=O)NCC(=O)N[C@H](C(=O)N[C@H](C(=O)O)C(C)C)C(C)C)C(C)C)[C@@H](C)CC (some centres unmarked) [PPI-286] (Ac-[X2]SNKGAIIGLMVGGVV-OH),1.3
11,CC[C@H](C)[C@H](NC(=O)[C@H](C)NC(=O)CNC(=O)[C@H](CCCCN)NC(=O)[C@H](CC(N)=O)NC(=O)[C@H](CO)NC(=O)CCCC[C@@H]1SC[C@@H]2NC(=N)N[C@@H]21)C(=O)N[C@H](C(=O)NCC(=O)N[C@@H](CC(C)C)C(=O)N[C@@H](CCSC)C(=O)N[C@H](C(=O)NCC(=O)NCC(=O)N[C@H](C(=O)N[C@H](C(=O)O)C(C)C)C(C)C)C(C)C)[C@@H](C)CC [PPI-287] (X3-SNKGAIIGLMVGGVV-OH),2.3

# Same assay, conditions: Table III; 33 mole %
row,SMILES,Fold Increase in Lag Time [fold]
1,CC(C)C[C@H](NC(=O)[C@H](CCCCN)NC(=O)[C@H](CCC(N)=O)NC(=O)[C@H](Cc1c[nH]cn1)NC(=O)[C@H](Cc1c[nH]cn1)NC(=O)[C@@H](NC(=O)[C@H](CCC(=O)O)NC(=O)[C@H](Cc1ccc(O)cc1)NC(=O)CNC(=O)[C@H](CO)NC(=O)[C@H](CC(=O)O)NC(=O)[C@H](Cc1c[nH]cn1)NC(=O)CC[C@@H](C)[C@H]1CC[C@H]2[C@@H]3[C@H](O)C[C@@H]4C[C@H](O)CC[C@]4(C)[C@H]3C[C@H](O)[C@]12C)C(C)C)C(=O)N[C@H](C(=O)N[C@@H](Cc1ccccc1)C(=O)N[C@@H](Cc1ccccc1)C(N)=O)C(C)C [PPI-296] (Cholyl-HDSGYEVHHQKLVFF-NH2),1.8

# Same assay, conditions: Table V; 100 mole % inhibitor; read-out: % Inucl'n (percent reduction in maximum observed turbidity)
row,SMILES,inhibition at 100 mol % [%]
1,"C[C@H](CCC(=O)O)[C@H]1CC[C@H]2[C@@H]3[C@H](O)C[C@@H]4C[C@H](O)CC[C@]4(C)[C@H]3C[C@H](O)[C@]12C [PPI-293, Cholic acid, reference compound]",0
